PubChem BioAssay (NCI)
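Values below derive from 48-hour exposures of cells grown in 96-well plates, with endpoints linearly interpolated between the two concentrations bracketing the appropriate inhibition level. Here, GI50 denotes the concentration required for 50% inhibition of growth. At the TGI there is no net growth.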

Columns and labels:
Test in all cases: DTP human tumour cell line panel, 48 h
786-0 renal = test system: 786-0 renal
A498 renal = test system: A498 renal
A549 NSCLC = test system: A549 NSCLC
ACHN renal = test system: ACHN renal
BT-549 breast = test system: BT-549 breast
CAKI-1 renal = test system: CAKI-1 renal
CCRF-CEM leukemia = test system: CCRF-CEM leukemia
COLO 205 colon = test system: COLO 205 colon
DU-145 prostate = test system: DU-145 prostate
EKVX NSCLC = test system: EKVX NSCLC
HCC-2998 colon = test system: HCC-2998 colon
HCT-116 colon = test system: HCT-116 colon
HCT-15 colon = test system: HCT-15 colon
HL-60(TB) leukemia = test system: HL-60(TB) leukemia
HOP-62 NSCLC = test system: HOP-62 NSCLC
HOP-92 NSCLC = test system: HOP-92 NSCLC
HS 578T breast = test system: HS 578T breast
HT29 colon = test system: HT29 colon
IGROV1 ovarian = test system: IGROV1 ovarian
K-562 leukemia = test system: K-562 leukemia
KM12 colon = test system: KM12 colon
LOX IMVI melanoma = test system: LOX IMVI melanoma
M14 melanoma = test system: M14 melanoma
MALME-3M melanoma = test system: MALME-3M melanoma
MCF7 breast = test system: MCF7 breast
MDA-MB-231 breast = test system: MDA-MB-231 breast
MDA-MB-435 = test system: MDA-MB-435
MOLT-4 leukemia = test system: MOLT-4 leukemia
NCI-H226 lung = test system: NCI-H226 lung
NCI-H23 lung = test system: NCI-H23 lung
NCI-H460 lung = test system: NCI-H460 lung
NCI-H522 lung = test system: NCI-H522 lung
NCI/ADR-RES ovarian = test system: NCI/ADR-RES ovarian
OVCAR-3 ovarian = test system: OVCAR-3 ovarian
OVCAR-4 ovarian = test system: OVCAR-4 ovarian
OVCAR-5 ovarian = test system: OVCAR-5 ovarian
OVCAR-8 ovarian = test system: OVCAR-8 ovarian
PC-3 prostate = test system: PC-3 prostate
RPMI-8226 leukemia = test system: RPMI-8226 leukemia
RXF 393 renal = test system: RXF 393 renal
SF-268 CNS = test system: SF-268 CNS
SF-295 CNS = test system: SF-295 CNS
SF-539 CNS = test system: SF-539 CNS
SK-MEL-2 melanoma = test system: SK-MEL-2 melanoma
SK-MEL-28 melanoma = test system: SK-MEL-28 melanoma
SK-MEL-5 melanoma = test system: SK-MEL-5 melanoma
SK-OV-3 ovarian = test system: SK-OV-3 ovarian
SN12C renal = test system: SN12C renal
SNB-19 CNS = test system: SNB-19 CNS
SNB-75 CNS = test system: SNB-75 CNS
SR leukemia = test system: SR leukemia
SW-620 colon = test system: SW-620 colon
T-47D breast = test system: T-47D breast
TK-10 renal = test system: TK-10 renal
U251 CNS = test system: U251 CNS
UACC-257 melanoma = test system: UACC-257 melanoma
UACC-62 melanoma = test system: UACC-62 melanoma
UO-31 renal = test system: UO-31 renal

## O=C(NC(=S)Nc1cc(Cl)ccc1O)c1cccc(Br)c1
786-0 renal
  GI50: 38 µM
  TGI: > 100 µM
A498 renal
  GI50: 4.8 µM
  TGI: 51.9 µM
A549 NSCLC
  GI50: 6.19 µM
  TGI: > 100 µM
ACHN renal
  GI50: 6.85 µM
  TGI: > 100 µM
BT-549 breast
  GI50: 62.9 µM
  TGI: > 100 µM
CAKI-1 renal
  GI50: 4.34 µM
  TGI: > 100 µM
CCRF-CEM leukemia
  GI50: 3.68 µM
  TGI: > 100 µM
COLO 205 colon
  GI50: 34.1 µM
  TGI: > 100 µM
DU-145 prostate
  GI50: 12.3 µM
  TGI: > 100 µM
EKVX NSCLC
  GI50: 17.1 µM
  TGI: > 100 µM
HCC-2998 colon
  GI50: 13.6 µM
  TGI: > 100 µM
HCT-116 colon
  GI50: 10.8 µM
  TGI: > 100 µM
HCT-15 colon
  GI50: 4.78 µM
  TGI: > 100 µM
HL-60(TB) leukemia
  GI50: 7.12 µM
  TGI: > 100 µM
HOP-62 NSCLC
  GI50: 7.46 µM
  TGI: > 100 µM
HOP-92 NSCLC
  GI50: 10.5 µM
  TGI: 59.2 µM
HS 578T breast
  GI50: 6.85 µM
  TGI: 41 µM
HT29 colon
  GI50: 69.3 µM
  TGI: > 100 µM
IGROV1 ovarian
  GI50: 9.67 µM
  TGI: > 100 µM
K-562 leukemia
  GI50: 4.94 µM
  TGI: > 100 µM
KM12 colon
  GI50: 5.78 µM
  TGI: > 100 µM
LOX IMVI melanoma
  GI50: 15.8 µM
  TGI: > 100 µM
M14 melanoma
  GI50: 26.3 µM
  TGI: > 100 µM
MALME-3M melanoma
  GI50: 9.33 µM
  TGI: 55.4 µM
MCF7 breast
  GI50: 2.11 µM
  TGI: > 100 µM
MDA-MB-231 breast
  GI50: 17 µM
  TGI: > 100 µM
MDA-MB-435
  GI50: 13.9 µM
  TGI: > 100 µM
MOLT-4 leukemia
  GI50: 4.47 µM
  TGI: > 100 µM
NCI-H226 lung
  GI50: 28.6 µM
  TGI: > 100 µM
NCI-H23 lung
  GI50: 7.93 µM
  TGI: > 100 µM
NCI-H460 lung
  GI50: 4.42 µM
  TGI: > 100 µM
NCI-H522 lung
  GI50: 6.65 µM
  TGI: > 100 µM
NCI/ADR-RES ovarian
  GI50: 5.77 µM
  TGI: 98 µM
OVCAR-3 ovarian
  GI50: 4.72 µM
  TGI: 24.9 µM
OVCAR-4 ovarian
  GI50: 4.7 µM
  TGI: > 100 µM
OVCAR-5 ovarian
  GI50: 57.1 µM
  TGI: > 100 µM
OVCAR-8 ovarian
  GI50: 6.54 µM
  TGI: > 100 µM
PC-3 prostate
  GI50: 6.78 µM
  TGI: > 100 µM
RPMI-8226 leukemia
  GI50: 4.15 µM
  TGI: > 100 µM
RXF 393 renal
  GI50: 18.7 µM
  TGI: 92.3 µM
SF-268 CNS
  GI50: 7.83 µM
  TGI: > 100 µM
SF-295 CNS
  GI50: 3.59 µM
  TGI: 24.9 µM
SF-539 CNS
  GI50: 7.58 µM
  TGI: 35.8 µM
SK-MEL-2 melanoma
  GI50: 12.1 µM
  TGI: > 100 µM
SK-MEL-28 melanoma
  GI50: 16.5 µM
  TGI: > 100 µM
SK-MEL-5 melanoma
  GI50: 6.21 µM
  TGI: > 100 µM
SK-OV-3 ovarian
  GI50: 19.4 µM
  TGI: > 100 µM
SN12C renal
  GI50: 12.5 µM
  TGI: > 100 µM
SNB-19 CNS
  GI50: 8.78 µM
  TGI: > 100 µM
SNB-75 CNS
  GI50: 11.8 µM
  TGI: 75.8 µM
SR leukemia
  GI50: 7.34 µM
  TGI: > 100 µM
SW-620 colon
  GI50: 4.77 µM
  TGI: > 100 µM
T-47D breast
  GI50: 3.71 µM
  TGI: > 100 µM
TK-10 renal
  GI50: 17.1 µM
  TGI: 78.9 µM
U251 CNS
  GI50: 3.95 µM
  TGI: > 100 µM
UACC-257 melanoma
  GI50: 15.3 µM
  TGI: > 100 µM
UACC-62 melanoma
  GI50: 6.24 µM
  TGI: > 100 µM
UO-31 renal
  GI50: 6.12 µM
  TGI: 56.3 µM
